Reference: patent publication US10903496B2, “Rigid naphthalenediimide triangle structures” (Northwestern University, priority 2015, dated 2021)
Values after ≈ are worked out from the molar mass of the structure shown. Where two headings read alike, the source gives them in different places.

Experiments:
[1] = Solubility in non-aqueous electrolyte solvents; type: physicochemical; conditions: for solubility in non-aqueous electrolyte solvents (in words): neutral state
[2] = Thermal gravimetric analysis (thermal stability); type: physicochemical
Experimental: Thermal stabilities were analyzed using a PerkinElmer Pyris Diamond TG/DTA analyzer. The temperature was increased from room temperature to 600° C. at a heating rate of 10° C. min^−1 under N2 atmosphere. […] The greater thermal stability of (−)-NDI-Δ is attributed to its higher molecular weight and more rigid structure compared to NDI-Ref.

Structure (SMILES) | solubility in non-aqueous electrolyte solvents (in words) [1] | thermal stability: temperature up to which stable / at which decomposition starts [2] | thermal stability: temperature up to which stable / at which decomposition starts ([2]; TGA, room temperature to 600° C. at 10° C. min^−1 under N2, one-step decomposition) | solubility in the electrolyte solvents ([1]; electrolyte solvents)
O=C1c2ccc3c4c5ccc(c24)C(=O)N1C1CCCC[C@@H]1N1C(=O)c2ccc4c6c(ccc(c26)C1=O)C(=O)N(C4=O)[C@H]1CCCC[C@@H]1N1C(=O)c2ccc4c6c(ccc(c26)C1=O)C(=O)N(C4=O)C1CCCC[C@@H]1N(C3=O)C5=O (single isomer, unassigned; (+)) [(+)-NDI-Δ] | only sparingly soluble |  |  | 
O=C1c2ccc3c4c5ccc(c24)C(=O)N1C1CCCC[C@H]1N1C(=O)c2ccc4c6c(ccc(c26)C1=O)C(=O)N(C4=O)C1CCCC[C@H]1N1C(=O)c2ccc4c6c(ccc(c26)C1=O)C(=O)N(C4=O)C1CCCC[C@H]1N(C3=O)C5=O (single isomer, unassigned; (-)) [(−)-NDI-Δ] | only sparingly soluble | 400 °C |  | 
O=C1c2ccc3c4c(ccc(c24)C(=O)N1C1CCCCC1)C(=O)N(C1CCCCC1)C3=O [NDI-Ref] | considerably more soluble |  | 250 °C | ~100 µg/mL (≈ 232 µM)
